Laboratory results published in patent US11123353B2 (Zhejiang Chinese Medical University, priority 2019, dated 2021).
“And” between values parts separate entries of the source, which are not always exact repeats. Identical values can stand only once.

Columns and labels:
[1] = test system: PC-9/GR tumor-bearing nude mouse model; assay: In vivo fluorescence imaging targeting test (DiR); design: species or system nude mice; conditions: DiR 7.5 μg·mL^−1, 0.2 mL tail vein, within 24 h
Procedure: The nude mice with a body mass of approximately 25 g in the established PC-9/GR tumor-bearing nude mouse model were taken, and respectively injected with 0.2 mL of a DiR raw medicine, and DiR-coated RGD/R8-ERG/GEF-LIP and RGD/R8-ERG/GEF-LIP freeze-dried powder (DiR concentration: 7.5 μg·mL^−1) by tail vein injection, the nude mice were anesthetized with isoflurane at different time points, and placed in an in vivo imager to observe the distribution of liposome in vivo (Ex=748 nm, Em=780 nm, and exposure time: 2 s). After 24 h, after the last in vivo imaging was finished, the nude mice were killed, and the heart, liver, spleen, lung, kidney and tumor were taken out and placed in the in vivo imager to observe the distribution of liposome in the in vitro tissues. […] It is speculated that the particle size of freeze-dried powder is smaller than that of RGD/R8-ERG/GEF-LIP, which increases the probability of entering the tumor cells to a certain extent and increases the tumor targeting effect in vivo.

A549 cells = assay: Cell cycle by PI flow cytometry, A549 cells; format: cell-based, human; conditions: A549, 48 h
Procedure: (§1) The number of cells in logarithmic growth phase was adjusted to 1.5×10^5·mL^−1, the cells were inoculated into a 6-well culture plate, and cultured in a 37° C. 5% CO2 incubator until 80% of the cells were fused and then a drug was added for treatment. […] After the drug acted for 48 h, a supernatant and cells were collected, centrifuged at 800 rpm·min^−1 for 10 min, washed once with PBS and fixed overnight with 75% ice ethanol, ethanol was discarded by centrifuging, and the cells were washed twice with PBS. The PBS was discarded, each sample was added with 0.5 ml of a PI staining solution to stain for 15 min at room temperature in the dark, and placed on a flow cytometer for measuring the proportion of cells in each cycle. The experiment was repeated 3 times.

PC-9 cells = assay: Cell cycle by PI flow cytometry, PC-9 cells; format: cell-based, human; conditions: PC-9, 48 h
Procedure: as §1
[…]. Other operations were the same as above.

[2] = In vitro release of GEF by dialysis in different pH release media; format: physicochemical; conditions: for cumulative release percentage of GEF: 37° C., listed as GEF raw medicine
Procedure: Due to its high lipid solubility, ERG could be dissolved in pure methanol or pure ethanol. However, the membranes of the liposomes directly ruptured in pure methanol or pure ethanol, and a release medium was difficult to meet the “sink” condition of ERG. Therefore, the in vitro release of ERG was not investigated in the experiment. […] Therefore, the in vitro release of GEF drug under different pH conditions was investigated in the experiment. […] Calculation was carried out according to the following formula: Cumulative release percentage Q (%)=(c1×V0+Σn=1^t-1Cv)/M0×100%
In the experiment, the in vitro release of GEF drug under different pH conditions was investigated. […] For specific operation, please refer to “5.7 Release Rate” in Part II in details.

[3] = test system: PC-9/GR lung cancer xenografts; assay: Preliminary pharmacodynamic test in PC-9/GR tumor-bearing nude mice; format: in vivo, BABL/C nude mouse
Procedure: A PC-9/GR lung cancer cell line was digested from a culture flask, and then resuspended in 0.9% normal saline, and the cell concentration was adjusted to 2.5×10^7·mL^−1 and the cell was inoculated into the left axilla of BABL/C nude mouse. Each nude mouse was inoculated with 0.2 mL of a cell suspension.
The nude mice in each group were administered by tail vein injection.
After starting administration, the body mass of the nude mouse was regularly measured once, and the longest and shortest diameters of the tumor were measured with a vernier caliper to calculate the volume of the tumor. After consecutively administrating 7 times, the tumor volume of each group was measured and the tumor inhibitory rate of each administration group was calculated. Tumor volume (mm^3)=½×Long diameter (mm)×Short diameter (mm)^2
Tumor inhibitory rate (%)=(Average tumor weight of model control group (mg)—Average tumor weight of administration group (mg))/Average tumor weight of model control group (mg)×100%

CCCCCCCCCCCCCCCCCCN1/C(=C/C=C/C=C/C=C/C2=[N+](CCCCCCCCCCCCCCCCCC)c3ccccc3C2(C)C)C(C)(C)c2ccccc21.[I-] [DiR raw medicine]
fluorescence accumulation in the tumor site [1]: not accumulated in the tumor site

CC(C)[C@@H](C)/C=C/[C@@H](C)[C@H]1CC[C@H]2C3=CC=C4C[C@@H](O)CC[C@]4(C)[C@H]3CC[C@]12C [ERG, ergosterol]
S phase fraction (A549 cells; ERG 20 μM): 32.05±2.27%
G2/M phase fraction (PC-9 cells; ERG 40 μM): 13.58±1.80%
S phase fraction (PC-9 cells; ERG 40 μM, ERG+GEF 40+5 μM): 26.93±2.02%

COc1cc2ncnc(Nc3ccc(F)c(Cl)c3)c2cc1OCCCN1CCOCC1 [GEF, gefitinib]
G0/G1 phase fraction (A549 cells; GEF 20 μM, combination of two drugs): 72.60±0.81%
G0/G1 phase fraction (PC-9 cells; GEF 5 μM, ERG+GEF 40+5 μM): 78.35±1.58%
cumulative release percentage of GEF ([2]; pH 6.4 40% methanol-containing phosphate buffer, 24 h): 98.91% and 99.12%
release model fitting ([2]; pH 6.4 release medium (FIG. 12)): conforms to the first-order kinetic equation
release model fitting ([2]; pH 6.4 release medium (FIG. 25; freeze-dried powder first 4 h)): more in line with the first-order model
cumulative release percentage of GEF ([2]; pH 7.4 40% methanol-containing phosphate buffer, within 24 h): 76.91% and 81.10%
fitting correlation coefficient of the first-order kinetic equation ([2]; pH 7.4 release medium): 0.9952
release model fitting ([2]; pH 7.4 release medium (FIG. 12)): closer to the Higuchi equation
release model fitting ([2]; pH 7.4 release medium (FIG. 25; freeze-dried powder first 4 h)): more in line with the Higuchi model
average tumor weight ([3]; compared with the model control group): highly significant difference
tumor volume change ([3]; course over 15 days of administration): rapid growth trend after the 9th day of administration
